Experimental data published in the supplement of paper PMC10883282.
± gives the standard deviation of the averaged measurements.

Test system: SW1353
Assay: relative viability vs DMSO control (72 h) (fraction); higher = more viable cells
In short: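 Percent growth from ATPLite readings, averaged over up to triplicate wells, was used as relative viability. Sarcoma cell lines were seeded into 384-well plates for 80–90% confluence, dosed after 24 h, and kept 72 h at 37 °C, 5% CO2. Data were rescaled to a range where 1 is full and 0 is none.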

SMILES | relative viability (0.00017 µM) | relative viability (0.00051 µM) | relative viability (0.00152 µM) | relative viability (0.00457 µM) | relative viability (0.01372 µM) | relative viability (0.04115 µM) | relative viability (0.1235 µM) | relative viability (0.3704 µM) | relative viability (1.111 µM) | relative viability (3.333 µM) | relative viability (10 µM)
CNC(=O)c1ccc(-c2cnc3ncc(Cc4ccc5ncccc5c4)n3n2)cc1F [Capmatinib] | 0.958 ± 0.038 | 0.979 ± 0.033 | 0.973 ± 0.029 | 0.986 ± 0.063 | 0.974 ± 0.019 | 0.964 ± 0.049 | 1.01 ± 0.036 | 0.98 ± 0.044 | 1.05 ± 0.025 | 1.07 ± 0.011 | 1.03 ± 0.018
CCN1CCN(Cc2ccc(Nc3ncc(F)c(-c4cc(F)c5nc(C)n(C(C)C)c5c4)n3)nc2)CC1 [Abemaciclib] | 0.958 ± 0.031 | 0.974 ± 0.017 | 0.976 ± 0.021 | 0.944 ± 0.011 | 0.9333 ± 0.0082 | 0.884 ± 0.033 | 0.778 ± 0.023 | 0.74 ± 0.021 | 0.699 ± 0.024 | 0.73 ± 0.046 | 0.721 ± 0.047
C=CC(=O)N1CCC[C@@H](n2nc(-c3ccc(Oc4ccccc4)cc3)c3c(N)ncnc32)C1 [Ibrutinib] | 1.03 ± 0.041 | 1.04 ± 0.028 | 1 ± 0.032 | 1.013 ± 0.0014 | 0.947 ± 0.03 | 0.945 ± 0.011 | 0.854 ± 0.05 | 0.821 ± 0.012 | 0.746 ± 0.043 | 0.647 ± 0.014 | 0.412 ± 0.021
Cn1cnc2c(F)c(Nc3ccc(Br)cc3F)c(C(=O)NOCCO)cc21 [Binimetinib] | 1.06 ± 0.021 | 1.08 ± 0.032 | 1.04 ± 0.019 | 0.993 ± 0.018 | 0.981 ± 0.038 | 0.889 ± 0.065 | 0.841 ± 0.092 | 0.832 ± 0.019 | 0.806 ± 0.019 | 0.739 ± 0.026 | 0.661 ± 0.013
CC1(C)CNc2cc(NC(=O)c3cccnc3NCc3ccncc3)ccc21 [Motesanib] | 0.993 ± 0.037 | 1.01 ± 0.013 | 1.02 ± 0.011 | 1 ± 0.018 | 0.997 ± 0.03 | 1.01 ± 0.012 | 0.963 ± 0.031 | 0.964 ± 0.016 | 0.977 ± 0.025 | 0.935 ± 0.023 | 0.898 ± 0.025
C[C@@H](c1ccc2nccn2c1)n1nnc2ncc(-c3cnn(C)c3)nc21 [Volitinib] | 1.01 ± 0.033 | 1.01 ± 0.011 | 0.998 ± 0.028 | 1.02 ± 0.019 | 1.02 ± 0.044 | 1 ± 0.048 | 1.01 ± 0.045 | 0.976 ± 0.026 | 1.03 ± 0.016 | 0.987 ± 0.035 | 1.02 ± 0.023
Cc1ccc(NC(=O)c2ccc(CN3CCN(C)CC3)cc2)cc1Nc1nc(-c2cccnc2)cs1 [Masitinib] | 1.03 ± 0.017 | 0.998 ± 0.012 | 0.986 ± 0.023 | 0.9886 ± 0.0079 | 0.989 ± 0.014 | 1.018 ± 0.0045 | 0.925 ± 0.006 | 0.86 ± 0.049 | 0.755 ± 0.047 | 0.478 ± 0.026 | 0.032 ± 0.0052
C=CC(=O)Nc1cccc(Oc2nc(Nc3ccc(N4CCN(C)CC4)cc3)nc3ccsc23)c1 [Olmutinib] | 1.03 ± 0.048 | 1.06 ± 0.059 | 1.04 ± 0.013 | 1.04 ± 0.048 | 1.03 ± 0.038 | 1.02 ± 0.03 | 0.997 ± 0.031 | 0.95 ± 0.086 | 0.857 ± 0.021 | 0.755 ± 0.012 | 0.104 ± 0.0062
CC(C)(C)c1cc(NC(=O)Nc2ccc(-c3cn4c(n3)sc3cc(OCCN5CCOCC5)ccc34)cc2)no1 [Quizartinib] | 1.02 ± 0.03 | 1.02 ± 0.047 | 1.02 ± 0.057 | 1.03 ± 0.047 | 1.01 ± 0.059 | 1.03 ± 0.043 | 1.02 ± 0.046 | 1.01 ± 0.031 | 0.965 ± 0.044 | 0.874 ± 0.02 | 0.981 ± 0.035
CC(C)NC(=O)C1CCC(n2c(NC(=O)c3ccc(F)cc3)nc3ccc(CN4CCC(C(C)(C)O)CC4)cc32)CC1 (stereo not given) [Belizatinib] | 1.02 ± 0.03 | 0.987 ± 0.045 | 1.02 ± 0.014 | 1.05 ± 0.062 | 1.03 ± 0.015 | 1.03 ± 0.03 | 0.944 ± 0.012 | 0.929 ± 0.022 | 0.808 ± 0.03 | 0.648 ± 0.021 | 0.441 ± 0.024
Cc1ccc(F)c(NC(=O)Nc2ccc(-c3cccc4[nH]nc(N)c34)cc2)c1 [Linifanib] | 1.08 ± 0.035 | 0.998 ± 0.023 | 1.02 ± 0.012 | 1.02 ± 0.015 | 1 ± 0.036 | 1.01 ± 0.057 | 0.982 ± 0.055 | 1.037 ± 0.009 | 1.07 ± 0.018 | 1.07 ± 0.036 | 0.9638 ± 0.0037
Cc1nc(NC(=O)N2CCC[C@H]2C(N)=O)sc1-c1ccnc(C(C)(C)C(F)(F)F)c1 [Alpelisib] | 1.02 ± 0.034 | 1 ± 0.024 | 1.01 ± 0.011 | 0.973 ± 0.028 | 0.977 ± 0.072 | 0.902 ± 0.027 | 0.9309 ± 0.0035 | 0.903 ± 0.039 | 0.819 ± 0.061 | 0.731 ± 0.024 | 0.594 ± 0.037
C[C@]1(O)C[C@@H](c2nc(-c3ccc4ccc(-c5ccccc5)nc4c3)c3c(N)nccn32)C1 [Linsitinib] | 1.03 ± 0.017 | 1 ± 0.024 | 1.03 ± 0.03 | 0.977 ± 0.024 | 1.03 ± 0.017 | 1.01 ± 0.014 | 0.978 ± 0.041 | 0.967 ± 0.029 | 0.9847 ± 0.0087 | 0.949 ± 0.05 | 0.866 ± 0.024
C=CC(=O)N1CCC([C@@H]2CCNc3c(C(N)=O)c(-c4ccc(Oc5ccccc5)cc4)nn32)CC1 [Zanubrutinib] | 1.07 ± 0.066 | 1.05 ± 0.048 | 1.04 ± 0.034 | 1.03 ± 0.038 | 1.03 ± 0.044 | 1.03 ± 0.044 | 1.02 ± 0.029 | 0.965 ± 0.034 | 0.917 ± 0.057 | 0.828 ± 0.041 | 0.657 ± 0.023
CCc1cc2c(cc1N1CCC(N3CCOCC3)CC1)C(C)(C)c1[nH]c3cc(C#N)ccc3c1C2=O [Alectinib] | 0.987 ± 0.02 | 0.993 ± 0.027 | 1.01 ± 0.019 | 1.002 ± 0.0077 | 0.996 ± 0.038 | 1.04 ± 0.012 | 0.988 ± 0.057 | 1.07 ± 0.032 | 0.9953 ± 0.0051 | 1.06 ± 0.058 | 1.14 ± 0.016
